{"source": "patent US20240425607A1", "about": "“IL-18BP ANTAGONIST ANTIBODIES AND THEIR USE IN MONOTHERAPY AND COMBINATION THERAPY IN THE TREATMENT OF CANCER” (Compugen Ltd., priority 2023, published 2024)", "key": {"[1]": {"test_system": "MC38ova tumor-bearing mice", "assay": "Peripheral effects in MC38ova tumor-bearing mice: anti-mIL18BP vs engineered mIL-18", "assay_type": "in vivo", "conditions": "single dose, varying concentrations of IL-15", "procedure": "Nine days pre-inoculum, vials of MC38ova^dim cells were thawed into RPMI media containing 10% FBS, 1% Glutamax, 1% Sodium pyruvate, 1% HEPES, 1% NEAA, 0.01% 2-mercaptoethanol, 1% Penicillin-Streptomycin. Following centrifugation at 300×g for 8 min, cell pellet was resuspended, counted and seeded in a T175 flask. On days −7, −5 and −2, the cells were detached and re-seeded at 6-8*10^6 cells/T175 flask. On the day of inoculum, the cells were detached, centrifuged at 300×g for 10 min, filtered through […] cell strainer and resuspended in RPMI.\nExperiments were performed in C57Bl/6 (female, 6-8 wk, Envigo). Mice were anesthetized with 10% Ketamine and 10% Xylazine mixture injected intraperitoneal. Next, mice were inoculated with MC38ova cells (1.2×10^6) subcutaneously to the right flank in 50 μl/mice.\nAt tumor volume of −120 mm^3 (day 9), mice were randomly assigned into treatment groups. Mice were treated with Synagis mouse IgG1, k isotype control 15 mg/kg (IP), anti-mIL18 bp 837 mIgG1 15 mg/kg (IP), PBS (SC), or engineered IL-18 (SC) 0.32 mg/kg. Treatments were injected twice a week for a total of 6 treatments. […] Mice were weighed every week. Mice were bled before the 4th treatment, 4 hours after the 4th treatment, and 24 hours after the 4th treatment. Serum was analyzed for presence of IFNg, TNFα, MCP1, IL6 by Cytometric Bead Array (CBA) Mouse Inflammation Kit (BD Cat. No. 552364). […]"}, "[2]": {"test_system": "tumor infiltrating lymphocytes (TILs) co-cultured with MEL624 cells", "assay": "rhIL-18 titration in TIL:MEL624 co-culture", "assay_type": "cell-based, human", "conditions": "24 hr", "procedure": "Human MEL624 cells were thawed and grown in DMEM with 10% FBS, 1% Glutamax, 1% Penicillin-Streptomycin Solution and 1% HEPES buffer. The cells were then seeded at 75 k cells/well in a 96 well plate in the assay medium (IMDM with 10% human serum, 1% Glutamax, 1% MEM eagle, 1% Sodium Pyruvate and 1% Penicillin-Streptomycin Solution) and incubated 1 hour in 37° C., 5% CO2 incubator before co-culture with human tumor infiltrating lymphocytes that were previously expanded using known melanoma antigens (TILs). Human TILs were thawed in full TIL media and 75 k cells/well were co-cultured with the MEL624 cells to create an effector: target ratio of 1:1. The co-cultured cells were then treated with rhIL-18 (1.23-300 ng/ml). Cells and all added solutions were prepared in full assay medium to a final volume of 200 μl/well. Plates were incubated for 24 hours in 37° C., 5% CO2 incubator, after which the supernatant was collected for cytokine secretion evaluation. All tests were done in triplicates."}}}
{"substance": "IL-15: recombinant IL15 given to mice as comparator cytokine [reference compound]", "values": [{"measurement": "Spleens of mice treated with IL-15 vs controls", "setting": "[1]", "result": "larger than controls"}]}
{"substance": "rhIL-18: recombinant human IL-18 (R&D systems)", "values": [{"measurement": "Concentration at saturation of IFNγ secretion", "setting": "[2]", "result": "~100", "unit": "ng/mL"}, {"measurement": "Concentration that activates TILs (IFNγ secretion)", "setting": "[2]", "result": "> 1", "unit": "ng/mL"}]}
